From patent US8937089B2, “Synergistic mixtures of anthranilamide invertebrate pest control agents” (priority 2004, dated 2015) come the findings set out here.

Experiment in all cases: whole plant or invertebrate
Format in all cases: in vivo

In data set [1] the test system is cotton melon aphid (Aphis gossypii Glover). The method, boiled down: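 Cotton plants (6–7 days old) pre-infested with 30–40 aphids by cut-leaf method, sprayed with compound (ppm) in 10% acetone/90% water with 300 ppm X-77 surfactant, three replicates. Held 6 days at 19–21 °C, 50–70% RH; contact and/or systemic control assessed.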
Data set [2] concerns green peach aphid (Myzus persicae Sulzer). The conditions noted are these: Green Peach Aphid. The method in brief:
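Compounds formulated in 10% acetone/water with 300 ppm X-77 surfactant were atomized onto aphid-infested radish seedlings, with three replicates per treatment. Infestation was 30–40 aphids transferred on excised leaf pieces, covering contact and systemic exposure. Test units stayed 6 days in a growth chamber at 19–21 °C and 50–70% relative humidity.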

Data set [3] has as its system potato leafhopper (Empoasca fabae Harris). The conditions noted are these: alone. The method, boiled down: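 Bean plants (5–6 days old, one primary leaf excised) were sprayed with 1 mL of compound in 10% acetone/water with 300 ppm X-77 surfactant, 3 replicates. After drying for 1 h, each unit was infested with 5 adult leafhoppers. Units were held 6 days at 19–21 °C and 50–70% RH.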

For data set [4], the system named is western flower thrip (Frankliniella occidentalis Pergande). The note with it: single compound, spray, 7 days. The method in brief: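 Compounds in 10% acetone/90% water with 300 ppm non-ionic surfactant were sprayed onto 5- to 7-day-old bean plants, 3 replicates. After 1 h drying, 22–27 adult thrips were added per unit. Units were held 7 days at 25° C, 45–55% RH, assessing contact and/or systemic control.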

The test system of data set [5] is silverleaf whitefly (Bemisia argentifolii Bellows and Perring). The note with it: Table 2B. The method in brief:
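Whitefly-egg-infested 12–14-day-old cotton plants sprayed with compound in 10% acetone/90% water plus 300 ppm non-ionic surfactant, in triplicate. Plants then held 13 days at 28 °C and 50–70% relative humidity before mortality assessment.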

The subject of data set [6] is corn planthopper (Peregrines maidis). The conditions noted are these: Corn Plant Hopper. The method, boiled down:
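Compounds in 10% acetone/90% water with 300 ppm X-77 surfactant sprayed (3 replications) onto 3- to 4-day-old corn plants, dried 1 h, then infested with 10–20 corn planthopper nymphs aged 18–20 days. Held 6 days at 19-21° C. and 50-70% relative humidity; contact and/or systemic control assessed.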

[7] abbreviates: Myzus persicae, in Raphanus sativus, rate 1000 ppm, read-out: % mortality (obs).
[8] abbreviates: Frankliniella occidentalis, 168 h, rate 1000 ppm, read-out: % mortality (obs).

`Nc1nc(N)nc(NC2CC2)n1` [Cyromazine]: the mortality at 10 ppm in data set [1] (Aphis gossypii, rate 10 ppm, read-out: % mortality (obs)) stood at 23%; in data set [2] (Myzus persicae, in Raphanus sativus, rate 10 ppm, read-out: % mortality (obs)), 24%; in data set [3] (Empoasca fabae, rate 10 ppm, read-out: % mortality (obs)), 7%; in data set [5] (Bemisia argentifolii, in Gossypium hirsutum, rate 10 ppm, read-out: % mortality (obs)), 1%. The mortality at 100 ppm came to 34% in data set [1] (Aphis gossypii, rate 100 ppm, read-out: % mortality (obs)); 33% in data set [2] (Myzus persicae, in Raphanus sativus, rate 100 ppm, read-out: % mortality (obs)); 0% in data set [3] (Empoasca fabae, rate 100 ppm, read-out: % mortality (obs)); 2% in data set [5] (Bemisia argentifolii, in Gossypium hirsutum, rate 100 ppm, read-out: % mortality (obs)). The mortality at 1000 ppm in data set [1] (Aphis gossypii, rate 1000 ppm, read-out: % mortality (obs)) is 28%; in data set [2] (setting [7]), 65%; in data set [3] (Empoasca fabae, rate 1000 ppm, read-out: % mortality (obs)), 0%; in data set [4] (setting [8]), 70%; in data set [5] (Bemisia argentifolii, in Gossypium hirsutum, rate 1000 ppm, read-out: % mortality (obs)), 2%; in data set [6] (rate 1000 ppm, read-out: % mortality (obs)), 8%. For the same compound, the mortality at 200 ppm in data set [4] (Frankliniella occidentalis, 168 h, rate 200 ppm, read-out: % mortality (obs)) came to 70%; in data set [6] (rate 200 ppm, read-out: % mortality (obs)), 4%. Further, the mortality at 500 ppm in data set [4] (Frankliniella occidentalis, 168 h, rate 500 ppm, read-out: % mortality (obs)) stood at 80%; in data set [6] (rate 500 ppm, read-out: % mortality (obs)) it was 8%.

Regarding Acetamiprid, the “% mortality (obs)” value is reported as 42% in data set [1] (rate 0.02 ppm); 67% in data set [1] (rate 0.08 ppm); 100% in data set [1] (rate 0.4 ppm); 27% in data set [2] (rate 0.2 ppm); 52% in data set [2] (rate 0.4 ppm); 46% in data set [2] (rate 0.6 ppm). Also, the “% mortality (obs)” value in data set [3] (rate 1 ppm) turned out to be 27%; in data set [3] (rate 4 ppm) it was 60%; in data set [3] (rate 12 ppm) it was 87%; in data set [4] (rate 1 ppm), 70%; in data set [4] (rate 100 ppm) it was 90%; in data set [4] (rate 3000 ppm), 100%. The “% mortality (obs)” value in data set [5] (rate 1 ppm) is reported as 3%; in data set [5] (rate 5 ppm), 45%; in data set [5] (rate 20 ppm), 83%; in data set [6] (rate 0.3 ppm), 43%; in data set [6] (rate 0.4 ppm), 85%; in data set [6] (rate 0.5 ppm) it was 100%.

Consider `CC1(C)[C@H](C(=O)O[C@H](C#N)c2cccc(Oc3ccccc3)c2)[C@@H]1C=C(Br)Br` [Deltamethrin], for which the mortality at 0.1 ppm in data set [1] (Aphis gossypii, rate 0.1 ppm, read-out: % mortality (obs)) amounted to 52%; in data set [3] (Empoasca fabae, rate 0.1 ppm, read-out: % mortality (obs)) it was 7%; in data set [6] (rate 0.1 ppm, read-out: % mortality (obs)), 11%. The mortality at 0.2 ppm was 39% in data set [1] (Aphis gossypii, rate 0.2 ppm, read-out: % mortality (obs)); 7% in data set [3] (Empoasca fabae, rate 0.2 ppm, read-out: % mortality (obs)); 14% in data set [6] (rate 0.2 ppm, read-out: % mortality (obs)). The mortality at 0.3 ppm was 88% in data set [1] (Aphis gossypii, rate 0.3 ppm, read-out: % mortality (obs)) and 7% in data set [6] (rate 0.3 ppm, read-out: % mortality (obs)). Moreover, the mortality at 250 ppm in data set [2] (Myzus persicae, in Raphanus sativus, rate 250 ppm, read-out: % mortality (obs)) stood at 9%. Further, the mortality at 300 ppm in data set [2] (Myzus persicae, in Raphanus sativus, rate 300 ppm, read-out: % mortality (obs)) came out at 3%. The mortality at 1000 ppm is 9% in data set [2] (setting [7]) and 70% in data set [4] (setting [8]). The mortality at 1 ppm in data set [3] (Empoasca fabae, rate 1 ppm, read-out: % mortality (obs)) was found to be 60%. The mortality at 10 ppm in data set [4] (Frankliniella occidentalis, 168 h, rate 10 ppm, read-out: % mortality (obs)) came out at 70%. Besides, in data set [4] (Frankliniella occidentalis, 168 h, rate 3000 ppm, read-out: % mortality (obs)), the mortality at 3000 ppm worked out at 50%. The mortality at 30 ppm in data set [5] (Bemisia argentifolii, in Gossypium hirsutum, rate 30 ppm, read-out: % mortality (obs)) was 2%. Besides, the mortality at 40 ppm in data set [5] (Bemisia argentifolii, in Gossypium hirsutum, rate 40 ppm, read-out: % mortality (obs)) is 0%. Also, the mortality at 50 ppm in data set [5] (Bemisia argentifolii, in Gossypium hirsutum, rate 50 ppm, read-out: % mortality (obs)) came to 1%.

With Pyriproxyfen, the “% mortality (obs)” value in data set [1] (rate 10 ppm) was 14%; in data set [1] (rate 100 ppm), 28%; in data set [1] (rate 1000 ppm) it was 33%; in data set [2] (rate 10 ppm), 23%; in data set [2] (rate 100 ppm), 12%; in data set [2] (rate 1000 ppm), 26%. The “% mortality (obs)” value in data set [3] (rate 10 ppm) was 13%; in data set [3] (rate 100 ppm) it was 0%; in data set [3] (rate 1000 ppm), 7%; in data set [4] (rate 10 ppm) it was 100%; in data set [4] (rate 100 ppm), 100%; in data set [4] (rate 1000 ppm), 100%. Also, the “% mortality (obs)” value in data set [5] (rate 10 ppm) worked out at 100%; in data set [5] (rate 15 ppm), 100%; in data set [5] (rate 20 ppm), 100%; in data set [6] (rate 10 ppm), 0%; in data set [6] (rate 100 ppm) it was 8%; in data set [6] (rate 1000 ppm), 12%.
